Laboratory results from ChEMBL document CHEMBL1201862, “PubChem BioAssay data set” (2004).
The source made the active and inactive calls.

How the values were obtained:
Mu-type opioid receptor = Mu-type opioid receptor (Homo sapiens, UniProt P35372); assay type: functional, cell-based;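 also: U2OS cells with beta-arrestin recruitment to OPRM1 by beta-gal complementation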
[1] = target: FAD-linked sulfhydryl oxidase ALR (Homo sapiens, UniProt P55789); test: inhibitors of human ALR sulfhydryl oxidase, dose response, biochemical, H2O2 detection, luminescence, cherry-pick (AID 493248)
[2] = target: 5-hydroxytryptamine receptor 2A (Mus musculus, UniProt P35363); assay type: functional, cell-based;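 also: CHO-K1 cells with tagged receptor and beta-arrestin; agonist potency measured as compound-induced activation of the receptor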
Plasmodium falciparum = test: growth inhibition of P. falciparum 3D7, dose response, 3D7 strain, red blood cells, SYBR Green, cherry-picked (AID 652047); assay type: functional
[3] = human group III sPLA2 inhibitors, dose response, biochemical, QFRET, IC50 (AID 743457);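 also: green fluorescence rise as the enzyme cleaves BODIPY PC-A2 in liposomes; potency for inhibition of the enzyme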
Streptococcus = test: Group A Streptococcus viability loss, dose response, counter-screen for streptokinase expression inhibitor project, luminescence, BacTiterGlo (AID 1915); assay type: functional, organism-based;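 also: potency for reduction of bacterial viability or growth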
[4] = test system: Streptococcus sp. 'group A'; test: growth inhibition of control SK(-) GAS strain, dose response, counter-screen for streptokinase expression inhibitor project, luminescence, kanamycin, BacTiterGlo, confirmation (AID 1900); assay type: functional, organism-based
[5] = NIH-3T3 fibroblast cytotoxicity, dose response, cytotoxicity control, cell-based, fluorescence, Alamar Blue, secondary assay (AID 2327); assay type: functional;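 also: NIH-3T3 mouse fibroblasts cultured with fluconazole at 8 µg/mL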
[6] = target: Serine/threonine-protein phosphatase (Candida dubliniensis (strain CD36 / CBS 7987 / NCPF 3949 / NRRLY-17841) (Yeast), UniProt B9W6M3); test: calcineurin pathway inhibitors in yeast reporter, dose response, S. cerevisiae, CDRE-lacZ, luminescence, secondary (AID 2388); assay type: functional, cell-based;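 also: yeast reporter cells carrying a calcineurin-responsive lacZ construct stimulated with calcium chloride; luminescent beta-galactosidase reporter signal in whole cells rather than isolated phosphatase activity; potency for inhibition where a drop in reporter signal means calcineurin blockade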
[7] = target: ATP-dependent molecular chaperone HSP82 (Candida albicans (strain WO-1) (Yeast), UniProt C4YTQ8); test: loss of DOC-induced GRE-beta-galactosidase reporter signal, dose response, Hsp90 inhibitor project, S. cerevisiae, luminescence (AID 2400); assay type: functional, cell-based;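 also: beta-galactosidase luminescence from glucocorticoid response element reporter as proxy for Hsp90 function; inhibitor potency where signal loss means Hsp90 inhibition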
[8] = inhibitors of CMV-promoter luciferase reporter, dose response, counter-screen for Pax8 inhibitor project, cell-based, HEK293, luminescence, dry powder (AID 743020); assay type: functional
[9] = C. albicans growth with fluconazole, confirmation, fluorescence, retest (AID 2467); assay type: functional, cell-based
Paired box protein Pax-8 = Paired box protein Pax-8 (Homo sapiens, UniProt Q06710); test: inhibitors of PAX8-driven TPO luciferase reporter, dose response, RMG-I cells, cherry-pick (AID 687027); assay type: functional, cell-based;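 also: luciferase reporter driven by Pax8 target thyroperoxidase promoter measured by SteadyGlo luminescence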
[10] = target: Botulinum neurotoxin type F (Clostridium botulinum, UniProt P30996); test: High-throughput multiplex microsphere dose response for inhibitors of toxin protease, specifically Botulinum neurotoxin light chain F protease, compounds from Cherry Pick 02.; assay type: functional; conditions: read-out: EC50_MICROM
[11] = target: Nuclear receptor subfamily 0 group B member 1 (Homo sapiens, UniProt P51843); assay type: functional, cell-based;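 also: HEK293T cells transfected with SF-1 and DAX-1 plus StAR promoter luciferase reporter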
cells [12] = assay type: functional, cell-based
[13] = HEK293T cytotoxicity, dose response, cytotoxicity control for miR-122 modulator project, cell-based, inhibitor set, cherry-pick, set 2 (AID 720697); assay type: functional
[14] = miR-122 activators in hepatoma reporter cells, dose response, cell-based, Huh7 psiCHECK-miR122, Renilla luciferase, cherry-picked (AID 651956); assay type: functional;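 also: huh7 hepatoma cells stably carrying a psiCHECK-2 miR-122 sensor plasmid; renilla luciferase signal reporting endogenous miR-122 activity after 48 h compound exposure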
[15] = HEK293T cytotoxicity, dose response, cytotoxicity control for miR-122 modulator project, cell-based, activator set, cherry-pick (AID 720690); assay type: functional;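 also: HEK293T human cells scored for general mammalian cytotoxicity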
[16] = LMP1-driven NF-kB reporter inhibition, dose response, cell-based, luciferase reporter, luminescence, dry powder, set 2 (AID 624376); assay type: functional
HeLa = test: HeLa cell cytotoxicity, dose response, cytotoxicity control, ATP luminescence, cherry-pick samples (AID 687004); assay type: functional, cell-based; conditions: Homo sapiens
Protein Wnt-3a = Protein Wnt-3a (Mus musculus, UniProt P27467); test: SAR analysis of small molecule antagonists of Gli-SUFU in a Wnt3a luminescent reporter assay.; assay type: functional
[17] = T. cruzi growth inhibition in host cells, dose response, cell-based, plate reader, dry powder, set 2 (AID 652275); assay type: functional
NS3 = NS3 (Hepatitis C virus, UniProt A3EZJ3); test: HCV NS3 helicase inhibitor potency, dose response, biochemical, fluorescence polarization, ChemBridge library (AID 743264)
Albumin = Albumin (Bos taurus, UniProt P02769); test: Counterscreen for inhibitors of T-cell receptor (TCR)-CD3 interaction: Fluorescence-based biochemical high throughput dose response assay to identify inhibitors of T-cell receptor (TCR)-CD3 interaction using a TAMRA-labeled BSA probe.; assay type: functional
[18] = target: T1, DNA repair protein RAD52 homolog (Homo sapiens, UniProt P43351); assay type: functional, biochemical
T1 sequence (P43351 whole entry): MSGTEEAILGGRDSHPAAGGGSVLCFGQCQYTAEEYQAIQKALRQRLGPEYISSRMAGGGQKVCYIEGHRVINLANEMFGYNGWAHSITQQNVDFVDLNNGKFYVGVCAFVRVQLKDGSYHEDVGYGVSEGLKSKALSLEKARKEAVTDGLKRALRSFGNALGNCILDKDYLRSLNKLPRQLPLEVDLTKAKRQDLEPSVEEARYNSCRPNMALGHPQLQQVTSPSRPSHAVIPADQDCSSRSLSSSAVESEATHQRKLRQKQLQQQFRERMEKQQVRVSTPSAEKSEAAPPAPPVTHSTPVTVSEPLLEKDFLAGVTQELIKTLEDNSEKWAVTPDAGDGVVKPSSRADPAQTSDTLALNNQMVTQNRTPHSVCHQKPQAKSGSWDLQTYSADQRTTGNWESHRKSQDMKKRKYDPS

[19] = target: Arf-GAP with SH3 domain, ANK repeat and PH domain-containing protein 1 (Homo sapiens, UniProt Q9ULH1); assay type: functional;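 also: biochemical fluorescence polarization dose–response screen measuring inhibition of ASAP1; ASAP1 GAP domain stimulating GTP hydrolysis by truncated human ARF1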
[20] = HeLa cell cytotoxicity, dose response, cytotoxicity control for MgcRacGAP inhibitor project (AID 624300); assay type: functional
[21] = target: T2, Rac GTPase-activating protein 1 (Homo sapiens, UniProt Q9H0H5); test: MgcRacGAP GTPase-activating activity inhibitors, confirmation, biochemical, ADP Hunter fluorescence, primary and confirmatory (AID 624330); assay type: functional
T2 sequence (Q9H0H5 whole entry): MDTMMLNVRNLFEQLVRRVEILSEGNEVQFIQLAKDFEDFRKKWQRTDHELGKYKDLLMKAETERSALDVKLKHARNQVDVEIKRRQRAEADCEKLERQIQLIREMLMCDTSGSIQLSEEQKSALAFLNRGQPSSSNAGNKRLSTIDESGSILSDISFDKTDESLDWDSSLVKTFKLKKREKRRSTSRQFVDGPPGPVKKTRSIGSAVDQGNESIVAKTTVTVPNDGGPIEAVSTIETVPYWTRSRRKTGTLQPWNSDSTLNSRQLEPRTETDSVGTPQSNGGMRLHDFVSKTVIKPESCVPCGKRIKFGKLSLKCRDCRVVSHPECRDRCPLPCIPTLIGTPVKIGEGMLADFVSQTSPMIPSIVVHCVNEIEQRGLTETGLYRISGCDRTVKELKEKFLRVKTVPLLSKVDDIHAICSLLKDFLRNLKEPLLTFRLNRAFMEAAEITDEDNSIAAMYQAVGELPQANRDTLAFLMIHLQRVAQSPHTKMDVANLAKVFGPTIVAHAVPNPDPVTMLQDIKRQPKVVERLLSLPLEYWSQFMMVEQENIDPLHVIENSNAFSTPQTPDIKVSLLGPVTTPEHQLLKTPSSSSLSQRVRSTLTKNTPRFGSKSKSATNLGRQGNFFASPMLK

[22] = target: T3, High affinity choline transporter 1 (Homo sapiens, UniProt Q9GZV3); test: CHT inhibitors, dose response, cell-based, 10-point CRC, membrane potential dye (AID 588401); assay type: functional;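 also: membrane potential dye fluorescence of choline-evoked depolarization via CHT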
T3 sequence (Q9GZV3 whole entry): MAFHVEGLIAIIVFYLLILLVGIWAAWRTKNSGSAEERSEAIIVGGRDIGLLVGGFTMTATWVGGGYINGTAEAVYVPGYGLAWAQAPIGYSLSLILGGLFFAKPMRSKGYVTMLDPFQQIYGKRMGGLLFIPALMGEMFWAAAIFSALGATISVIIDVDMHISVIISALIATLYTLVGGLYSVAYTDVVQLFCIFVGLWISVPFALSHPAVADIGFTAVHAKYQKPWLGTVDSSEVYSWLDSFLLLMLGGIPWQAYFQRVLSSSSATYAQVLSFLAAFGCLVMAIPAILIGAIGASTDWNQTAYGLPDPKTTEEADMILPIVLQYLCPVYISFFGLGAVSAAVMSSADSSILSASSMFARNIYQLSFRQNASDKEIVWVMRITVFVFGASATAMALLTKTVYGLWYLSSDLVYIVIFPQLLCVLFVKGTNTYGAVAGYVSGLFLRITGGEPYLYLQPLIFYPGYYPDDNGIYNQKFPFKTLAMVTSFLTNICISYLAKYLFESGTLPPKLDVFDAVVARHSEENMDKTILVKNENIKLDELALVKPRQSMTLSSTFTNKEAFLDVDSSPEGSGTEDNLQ

[23] = HEK293T cell cytotoxicity, dose response, cytotoxicity control for HIV Vif inhibitor project, cherry-picks (AID 652208); assay type: functional, cell-based
Galanin receptor type 3 = target: T4, Galanin receptor type 3 (Homo sapiens, UniProt O60755); test: Fluorescence-based cell-based primary high throughput dose response assay to identify antagonists of the Galanin Receptor 3 (GalR3).; assay type: functional
T4 sequence (O60755 whole entry): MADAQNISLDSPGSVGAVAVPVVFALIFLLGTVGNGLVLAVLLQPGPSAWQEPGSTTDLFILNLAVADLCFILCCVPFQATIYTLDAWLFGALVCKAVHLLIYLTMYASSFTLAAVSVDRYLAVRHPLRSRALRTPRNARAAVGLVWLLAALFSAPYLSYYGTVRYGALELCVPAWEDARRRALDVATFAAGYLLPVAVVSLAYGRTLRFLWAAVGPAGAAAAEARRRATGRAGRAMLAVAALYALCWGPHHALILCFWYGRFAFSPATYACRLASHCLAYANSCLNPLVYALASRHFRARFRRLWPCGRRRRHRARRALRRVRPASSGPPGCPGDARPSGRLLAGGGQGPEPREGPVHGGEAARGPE

[24] = Luminescence Cell-Based Dose Retest to Confirm Inhibitors of Cancer Stem Cells. [Related pubchem assays (depositor defined):AID2717, AID2721]; assay type: functional; conditions: Homo sapiens
cells [25] = assay type: functional, cell-based; conditions: HEK-CNG
[26] = target: T3, High affinity choline transporter 1; test: CHT inhibitors, dose response, cell-based, 5-point CRC, membrane potential dye (AID 504840); assay type: functional

Sequence of Protein Wnt-3a (P27467 whole entry): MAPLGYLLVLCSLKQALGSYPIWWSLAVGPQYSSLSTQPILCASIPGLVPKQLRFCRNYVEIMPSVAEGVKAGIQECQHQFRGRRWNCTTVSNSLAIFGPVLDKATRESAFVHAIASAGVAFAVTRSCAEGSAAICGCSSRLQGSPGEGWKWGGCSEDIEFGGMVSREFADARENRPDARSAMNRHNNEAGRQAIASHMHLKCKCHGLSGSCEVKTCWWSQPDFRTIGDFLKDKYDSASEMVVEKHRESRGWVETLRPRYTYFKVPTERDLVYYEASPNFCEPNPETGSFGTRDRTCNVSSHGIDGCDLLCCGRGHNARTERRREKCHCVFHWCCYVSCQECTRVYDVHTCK
Sequence of Botulinum neurotoxin type F (P30996 1-436 limits assumed): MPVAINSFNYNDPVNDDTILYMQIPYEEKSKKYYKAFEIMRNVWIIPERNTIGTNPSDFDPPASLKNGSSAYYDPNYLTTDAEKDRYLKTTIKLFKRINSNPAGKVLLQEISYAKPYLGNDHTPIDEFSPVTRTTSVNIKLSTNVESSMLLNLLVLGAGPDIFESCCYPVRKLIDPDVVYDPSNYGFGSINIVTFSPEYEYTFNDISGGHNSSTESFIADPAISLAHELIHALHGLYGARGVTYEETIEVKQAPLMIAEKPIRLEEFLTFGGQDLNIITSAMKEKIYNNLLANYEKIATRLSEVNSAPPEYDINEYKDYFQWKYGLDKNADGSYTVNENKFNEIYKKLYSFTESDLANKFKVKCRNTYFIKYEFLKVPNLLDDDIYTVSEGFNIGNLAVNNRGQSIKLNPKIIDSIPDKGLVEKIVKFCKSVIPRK
Sequence of NS3 (A3EZJ3 whole entry): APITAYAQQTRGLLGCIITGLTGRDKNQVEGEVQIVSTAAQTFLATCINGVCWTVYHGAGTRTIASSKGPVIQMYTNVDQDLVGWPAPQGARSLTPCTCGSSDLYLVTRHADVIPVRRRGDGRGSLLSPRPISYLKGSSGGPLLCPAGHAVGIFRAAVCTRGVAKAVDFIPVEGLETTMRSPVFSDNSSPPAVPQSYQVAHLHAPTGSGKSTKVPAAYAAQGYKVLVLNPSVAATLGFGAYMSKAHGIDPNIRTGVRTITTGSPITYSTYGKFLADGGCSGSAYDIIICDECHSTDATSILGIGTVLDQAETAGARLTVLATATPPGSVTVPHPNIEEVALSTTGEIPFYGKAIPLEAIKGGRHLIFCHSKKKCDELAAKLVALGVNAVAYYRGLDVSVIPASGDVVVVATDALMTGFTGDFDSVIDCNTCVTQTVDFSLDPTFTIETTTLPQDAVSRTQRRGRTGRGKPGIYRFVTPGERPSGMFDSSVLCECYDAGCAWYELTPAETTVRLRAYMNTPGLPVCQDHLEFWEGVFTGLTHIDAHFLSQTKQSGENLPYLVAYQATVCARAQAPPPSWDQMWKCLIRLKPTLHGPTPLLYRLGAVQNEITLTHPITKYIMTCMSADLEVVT
Sequence of Nuclear receptor subfamily 0 group B member 1 (P51843 whole entry): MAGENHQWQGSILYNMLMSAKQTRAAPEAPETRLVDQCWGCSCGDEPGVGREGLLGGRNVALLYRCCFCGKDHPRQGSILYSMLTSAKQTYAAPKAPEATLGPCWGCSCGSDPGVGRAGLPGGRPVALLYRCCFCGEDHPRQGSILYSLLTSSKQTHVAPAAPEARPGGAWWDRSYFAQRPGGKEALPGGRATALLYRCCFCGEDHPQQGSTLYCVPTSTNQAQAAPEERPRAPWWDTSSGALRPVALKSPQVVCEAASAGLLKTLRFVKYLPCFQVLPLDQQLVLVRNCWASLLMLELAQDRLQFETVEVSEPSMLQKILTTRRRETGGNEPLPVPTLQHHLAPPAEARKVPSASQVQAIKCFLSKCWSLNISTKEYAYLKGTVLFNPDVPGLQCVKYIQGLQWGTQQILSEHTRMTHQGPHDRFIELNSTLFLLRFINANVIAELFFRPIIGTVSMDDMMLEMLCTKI
Sequence of Serine/threonine-protein phosphatase (B9W6M3 whole entry): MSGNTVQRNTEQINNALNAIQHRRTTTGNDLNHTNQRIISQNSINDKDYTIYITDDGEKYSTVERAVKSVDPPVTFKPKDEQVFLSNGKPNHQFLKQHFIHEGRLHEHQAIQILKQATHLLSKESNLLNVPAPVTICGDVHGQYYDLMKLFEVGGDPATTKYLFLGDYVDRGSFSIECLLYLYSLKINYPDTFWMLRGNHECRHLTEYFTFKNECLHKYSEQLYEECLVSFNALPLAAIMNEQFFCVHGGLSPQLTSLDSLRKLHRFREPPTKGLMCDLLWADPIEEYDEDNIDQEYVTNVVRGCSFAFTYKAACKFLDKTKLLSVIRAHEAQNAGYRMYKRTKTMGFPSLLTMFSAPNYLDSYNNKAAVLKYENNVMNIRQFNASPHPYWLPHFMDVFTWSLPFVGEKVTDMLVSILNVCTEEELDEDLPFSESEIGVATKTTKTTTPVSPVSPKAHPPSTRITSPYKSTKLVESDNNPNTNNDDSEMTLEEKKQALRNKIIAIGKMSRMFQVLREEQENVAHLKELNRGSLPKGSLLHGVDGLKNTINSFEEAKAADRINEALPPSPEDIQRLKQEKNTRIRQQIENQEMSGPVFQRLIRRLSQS
Sequence of Albumin (P02769 whole entry): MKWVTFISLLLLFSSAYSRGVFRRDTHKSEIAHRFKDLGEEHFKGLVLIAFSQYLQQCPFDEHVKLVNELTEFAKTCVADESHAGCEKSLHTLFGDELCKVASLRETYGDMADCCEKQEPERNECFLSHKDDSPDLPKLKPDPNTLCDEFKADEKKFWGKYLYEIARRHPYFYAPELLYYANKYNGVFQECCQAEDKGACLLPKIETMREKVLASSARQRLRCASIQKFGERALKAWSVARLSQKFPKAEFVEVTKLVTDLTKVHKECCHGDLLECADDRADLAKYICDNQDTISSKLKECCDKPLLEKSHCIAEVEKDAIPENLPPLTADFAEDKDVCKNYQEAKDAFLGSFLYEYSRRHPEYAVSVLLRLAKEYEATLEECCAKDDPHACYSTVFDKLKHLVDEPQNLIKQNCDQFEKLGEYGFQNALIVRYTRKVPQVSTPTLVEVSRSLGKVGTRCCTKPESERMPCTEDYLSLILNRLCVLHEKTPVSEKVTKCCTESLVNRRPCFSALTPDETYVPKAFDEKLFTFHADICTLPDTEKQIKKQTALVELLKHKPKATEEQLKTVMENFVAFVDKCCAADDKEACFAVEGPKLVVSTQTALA
Sequence of Paired box protein Pax-8 (Q06710 whole entry): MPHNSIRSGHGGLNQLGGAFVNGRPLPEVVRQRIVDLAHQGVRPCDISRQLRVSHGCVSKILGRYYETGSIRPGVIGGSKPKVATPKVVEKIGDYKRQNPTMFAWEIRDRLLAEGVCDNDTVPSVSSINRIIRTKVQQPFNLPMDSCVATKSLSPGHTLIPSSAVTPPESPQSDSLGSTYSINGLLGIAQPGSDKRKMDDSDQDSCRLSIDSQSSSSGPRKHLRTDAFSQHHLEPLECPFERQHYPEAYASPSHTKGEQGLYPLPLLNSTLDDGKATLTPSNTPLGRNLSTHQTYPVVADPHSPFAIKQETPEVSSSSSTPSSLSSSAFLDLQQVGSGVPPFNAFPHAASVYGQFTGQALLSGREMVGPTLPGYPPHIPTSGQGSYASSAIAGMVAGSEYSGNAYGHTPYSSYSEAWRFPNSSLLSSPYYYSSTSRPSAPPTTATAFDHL
Sequence of Arf-GAP with SH3 domain, ANK repeat and PH domain-containing protein 1 (Q9ULH1 whole entry, the tested form may be a part): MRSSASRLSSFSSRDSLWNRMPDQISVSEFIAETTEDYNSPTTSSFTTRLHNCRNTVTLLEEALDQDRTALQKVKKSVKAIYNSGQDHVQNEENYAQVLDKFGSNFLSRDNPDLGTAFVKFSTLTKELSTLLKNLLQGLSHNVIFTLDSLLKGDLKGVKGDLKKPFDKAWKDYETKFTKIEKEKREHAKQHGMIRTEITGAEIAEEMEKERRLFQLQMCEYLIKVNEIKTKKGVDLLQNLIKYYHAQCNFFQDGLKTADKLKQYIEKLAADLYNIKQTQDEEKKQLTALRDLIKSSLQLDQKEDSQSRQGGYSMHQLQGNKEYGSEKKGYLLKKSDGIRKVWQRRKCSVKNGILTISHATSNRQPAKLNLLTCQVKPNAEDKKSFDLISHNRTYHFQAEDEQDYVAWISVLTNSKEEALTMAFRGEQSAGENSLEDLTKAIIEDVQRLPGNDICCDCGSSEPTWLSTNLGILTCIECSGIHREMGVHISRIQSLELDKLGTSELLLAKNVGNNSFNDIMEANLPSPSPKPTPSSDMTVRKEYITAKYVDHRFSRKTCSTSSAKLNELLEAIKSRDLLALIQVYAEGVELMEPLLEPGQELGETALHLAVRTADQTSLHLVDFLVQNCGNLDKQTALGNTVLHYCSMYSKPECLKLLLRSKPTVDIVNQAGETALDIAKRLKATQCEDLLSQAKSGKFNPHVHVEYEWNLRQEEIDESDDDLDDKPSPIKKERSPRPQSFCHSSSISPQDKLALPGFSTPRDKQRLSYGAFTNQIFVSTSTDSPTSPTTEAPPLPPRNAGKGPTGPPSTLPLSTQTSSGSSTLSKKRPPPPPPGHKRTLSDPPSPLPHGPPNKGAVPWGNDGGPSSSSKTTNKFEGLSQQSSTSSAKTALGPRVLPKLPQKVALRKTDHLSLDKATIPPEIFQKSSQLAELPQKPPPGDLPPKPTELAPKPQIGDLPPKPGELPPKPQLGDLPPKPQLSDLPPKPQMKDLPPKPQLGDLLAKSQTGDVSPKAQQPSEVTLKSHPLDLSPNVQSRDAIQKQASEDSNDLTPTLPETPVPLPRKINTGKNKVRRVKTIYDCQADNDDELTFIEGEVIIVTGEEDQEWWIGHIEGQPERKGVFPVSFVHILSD
Sequence of FAD-linked sulfhydryl oxidase ALR (P55789 whole entry): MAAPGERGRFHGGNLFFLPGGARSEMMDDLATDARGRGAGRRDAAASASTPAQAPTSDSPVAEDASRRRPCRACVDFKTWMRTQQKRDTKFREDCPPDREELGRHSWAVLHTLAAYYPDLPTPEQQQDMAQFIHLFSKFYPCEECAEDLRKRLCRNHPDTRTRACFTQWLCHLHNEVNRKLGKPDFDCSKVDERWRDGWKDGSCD

## CNCCc1ccc(O)c(O)c1
Mu-type opioid receptor
  EC50: 92.3 µM (inactive)
[1]
  AC50: 4.11 µM (active)
[2]
  EC50: 0.0874 µM (active)

## Nc1nc(-c2ccccc2)c(-c2ccc([N+](=O)[O-])cc2)s1
Plasmodium falciparum
  AbsAC35: 103.54 µM

## O=C(/C=C/c1cccs1)NC(=S)NNC(=O)Cc1cccs1
[3]
  IC50: 37 µM (inactive)
Streptococcus
  EC50: 5.99 µM (active)
[4]
  EC50: 2.01 µM (active)

## O=C(CCS(=O)(=O)c1ccc(Cl)cc1)Nc1nc(-c2ccncc2)cs1
[5]
  EC50: 27.9 µM (active)
[6]
  EC50: > 180 µM (inactive)
[7]
  EC50: > 150 µM (inactive)
[8]
  AC50: < 3.35 µM (active)
[9]
  EC50: 5.04 µM (active)
Paired box protein Pax-8
  AC50: 8.17 µM (active)

## Cc1ccc(-c2nc3cc(C)c(Br)c(C)n3c2Cc2cccc(Cl)c2)cc1
[10]
  EC50: > 20 µM (inactive)

## Cc1ccn2c(Cc3ccccc3)c(-c3ccc(Br)cc3)nc2c1
[11]
  IC50: > 67.6 µM (inactive)
Cells [12]
  IC50: > 67.6 µM (inactive)

## C[C@@H]1CCCCO[C@@H](CN(C)CC2CCCCC2)[C@@H](C)CN([C@@H](C)CO)C(=O)c2cc(NC(=O)Nc3cccc4ccccc34)ccc2O1
[13]
  AC50: 8.05 µM (active)
[14]
  AC50: 10.4 µM (active)
[15]
  AC50: 14.6 µM (active)

## C[C@@H]1CN([C@@H](C)CO)C(=O)Cc2cc(NC(=O)Cc3ccccc3)ccc2O[C@H]1CN(C)Cc1ccc(C(F)(F)F)cc1
[16]
  AbsAC35: 115.61 µM

## C/C=C/c1ccc2n(c1=O)C[C@H]1[C@H](CO)[C@@H](C(=O)N3CCc4ccccc4C3)N(C(=O)C3CC3)[C@@H]21.C/C=C\c1ccc2n(c1=O)C[C@H]1[C@H](CO)[C@@H](C(=O)N3CCc4ccccc4C3)N(C(=O)C3CC3)[C@@H]21
HeLa
  AC50: > 52 µM (inactive)

## COc1cc(OC)cc(C(=O)Nc2cc(N(C)C)ncn2)c1
Protein Wnt-3a
  IC50: > 21.8 µM (inactive)

## CC(C)N1CC2(CN(Cc3ccccc3F)C2)Oc2c(NC(=O)c3ccncc3)cccc2C1=O
[17]
  AC50: 0.747 µM (active)

## O=C1NC(=S)N(c2ccccc2F)C(=O)C1=Cc1ccco1
NS3
  IC50: 3.35 µM (inactive)

## C/C(=N\NC(=O)c1ccc(-c2ccccc2)cc1)C1C(=O)c2ccccc2C1=O
Streptococcus
  EC50: 4.32 µM (active)
Albumin
  IC50: > 94.1 µM (inactive)
[4]
  EC50: 0.557 µM (active)

## C[n+]1c(-c2ccc(C=NNC(=O)c3ccc(C(=O)NN=Cc4ccc(-c5cn6ccccc6[n+]5C)cc4)cc3)cc2)cn2ccccc21
[18]
  AC50: 1.52 µM (active)
[19]
  IC50: 22.3 µM (inactive)
[20]
  CC50: 100 µM (active)
[21]
  IC50: 66.4 µM (active)

## C=CCNc1ncnc2c1ncn2C1OC(CO)C(O)C1O (configuration not stated)
[22]
  IC50: 6.31 µM (active)
[23]
  AC50: 22.1 µM (active)
Galanin receptor type 3
  IC50: > 0.369 µM (active)
[24]
  AC50: 3.33 µM (active)
Cells [25]
  EC50: 15.8 µM (inactive)
[26]
  IC50: 9.17 µM (active)
